# Values quoted from earlier work in patent US7776886B2, “Cyclopropyl piperidine glycine transporter inhibitors” (Merck Sharp & Dohme Corp., priority 2004, dated 2010).
# Legend:
# [1] = mice
# NMDA receptor = settings: rat
# [2] = schizophrenia patients poorly responsive to antipsychotic drugs
Compound,pre-pulse inhibition (measure of sensory gating) [1],NMDA receptor activity (NMDA receptor),NMDA receptor-dependent long-term potentiation (NMDA receptor),"effect on positive, negative and cognitive symptoms [2]"
"CN(CCC(Oc1ccc(-c2ccccc2)cc1)c1ccc(F)cc1)CC(=O)O (stereo not shown) [NFPS, (N-[3-(4′-fluorophenyl)-3-(4′-phenylphenoxy)propyl])sarcosine]",enhance pre-pulse inhibition,potentiates,potentiates,–
CNCC(=O)O [sarcosine],–,–,–,beneficial effect
